Measured values: ChEMBL document CHEMBL4507282, “Data for DCP probe BI-1950” (2021)

Assays:
[1] = tested on: Tyrosine-protein kinase ABL1 (Homo sapiens), P00519 [F317I]; conditions: Compound concentration 1000.0 nM
[2] = biological target: Tyrosine-protein kinase ABL1 (Homo sapiens) (UniProt P00519); conditions: Compound concentration 1000.0 nM
[3] = biological target: Serine/threonine-protein kinase BRSK2 (Homo sapiens) (UniProt Q8IWQ3); conditions: Compound concentration 1000.0 nM
[4] = biological target: Cyclin-dependent kinase 19 (Homo sapiens) (UniProt Q9BWU1); conditions: Compound concentration 1000.0 nM
[5] = biological target: Cyclin-dependent kinase 3 (Homo sapiens) (UniProt Q00526); conditions: Compound concentration 1000.0 nM
[6] = biological target: Cyclin-dependent kinase-like 5 (Homo sapiens) (UniProt O76039); conditions: Compound concentration 1000.0 nM
[7] = biological target: Dual specificity protein kinase CLK3 (Homo sapiens) (UniProt P49761); conditions: Compound concentration 1000.0 nM
[8] = biological target: Macrophage colony-stimulating factor 1 receptor (Homo sapiens) (UniProt P07333); conditions: Compound concentration 1000.0 nM
[9] = biological target: Casein kinase I isoform gamma-3 (Homo sapiens) (UniProt Q9Y6M4); conditions: Compound concentration 1000.0 nM
[10] = biological target: Death-associated protein kinase 1 (Homo sapiens) (UniProt P53355); conditions: Compound concentration 1000.0 nM
[11] = biological target: Serine/threonine-protein kinase DCLK3 (Homo sapiens) (UniProt Q9C098); conditions: Compound concentration 1000.0 nM
[12] = biological target: Ephrin type-A receptor 7 (Homo sapiens) (UniProt Q15375); conditions: Compound concentration 1000.0 nM
[13] = biological target: Tyrosine-protein kinase Fgr (Homo sapiens) (UniProt P09769); conditions: Compound concentration 1000.0 nM
[14] = tested on: Receptor-type tyrosine-protein kinase FLT3 (Homo sapiens), P36888 [D835V]; conditions: Compound concentration 1000.0 nM
[15] = tested on: Receptor-type tyrosine-protein kinase FLT3 (Homo sapiens), P36888 [UNDEFINED MUTATION]; conditions: Compound concentration 1000.0 nM
[16] = tested on: Receptor-type tyrosine-protein kinase FLT3 (Homo sapiens), P36888 [UNDEFINED MUTATION]; conditions: Compound concentration 1000.0 nM; remark: listed apart in the source
[17] = biological target: Rhodopsin kinase GRK1 (Homo sapiens) (UniProt Q15835); conditions: Compound concentration 1000.0 nM
[18] = biological target: LIM domain kinase 2 (Homo sapiens) (UniProt P53671); conditions: Compound concentration 1000.0 nM
[19] = biological target: Mitogen-activated protein kinase kinase kinase 3 (Homo sapiens) (UniProt Q99759); conditions: Compound concentration 1000.0 nM
[20] = biological target: Mitogen-activated protein kinase kinase kinase kinase 5 (Homo sapiens) (UniProt Q9Y4K4); conditions: Compound concentration 1000.0 nM
[21] = biological target: MAP kinase-activated protein kinase 5 (Homo sapiens) (UniProt Q8IW41); conditions: Compound concentration 1000.0 nM
[22] = biological target: Serine/threonine-protein kinase MARK1 (Homo sapiens) (UniProt Q9P0L2); conditions: Compound concentration 1000.0 nM
[23] = biological target: MAP/microtubule affinity-regulating kinase 4 (Homo sapiens) (UniProt Q96L34); conditions: Compound concentration 1000.0 nM
[24] = biological target: Dual specificity mitogen-activated protein kinase kinase 5 (Homo sapiens) (UniProt Q13163); conditions: Compound concentration 1000.0 nM
[25] = biological target: Dual specificity mitogen-activated protein kinase kinase 6 (Homo sapiens) (UniProt P52564); conditions: Compound concentration 1000.0 nM
[26] = biological target: Myosin light chain kinase (Homo sapiens) (UniProt Q32MK0); conditions: Compound concentration 1000.0 nM
[27] = biological target: Serine/threonine-protein kinase Nek1 (Homo sapiens) (UniProt Q96PY6); conditions: Compound concentration 1000.0 nM
[28] = biological target: Serine/threonine-protein kinase NLK (Homo sapiens) (UniProt Q9UBE8); conditions: Compound concentration 1000.0 nM
[29] = biological target: Cyclin-dependent kinase 16 (Homo sapiens) (UniProt Q00536); conditions: Compound concentration 1000.0 nM
[30] = biological target: Cyclin-dependent kinase 18 (Homo sapiens) (UniProt Q07002); conditions: Compound concentration 1000.0 nM
[31] = tested on: Phosphatidylinositol 4,5-bisphosphate 3-kinase catalytic subunit alpha isoform (Homo sapiens), P42336 [M1043I]; conditions: Compound concentration 1000.0 nM
[32] = biological target: 1-phosphatidylinositol 3-phosphate 5-kinase (Homo sapiens) (UniProt Q9Y2I7); conditions: Compound concentration 1000.0 nM
[33] = biological target: Protein kinase C iota type (Homo sapiens) (UniProt P41743); conditions: Compound concentration 1000.0 nM
[34] = tested on: Proto-oncogene tyrosine-protein kinase receptor Ret (Homo sapiens), P07949 [V804L]; conditions: Compound concentration 1000.0 nM
[35] = biological target: Rho-associated protein kinase 2 (Homo sapiens) (UniProt O75116); conditions: Compound concentration 1000.0 nM
[36] = biological target: Ribosomal protein S6 kinase alpha-4 (Homo sapiens) (UniProt O75676); conditions: Compound concentration 1000.0 nM
[37] = biological target: Ribosomal protein S6 kinase alpha-4 (Homo sapiens) (UniProt O75676); conditions: Compound concentration 1000.0 nM; remark: listed apart in the source
[38] = biological target: Ribosomal protein S6 kinase alpha-5 (Homo sapiens) (UniProt O75582); conditions: Compound concentration 1000.0 nM
[39] = biological target: SRSF protein kinase 2 (Homo sapiens) (UniProt P78362); conditions: Compound concentration 1000.0 nM
[40] = biological target: STE20/SPS1-related proline-alanine-rich protein kinase (Homo sapiens) (UniProt Q9UEW8); conditions: Compound concentration 1000.0 nM
[41] = biological target: Serine/threonine-protein kinase TAO3 (Homo sapiens) (UniProt Q9H2K8); conditions: Compound concentration 1000.0 nM
[42] = biological target: Serine/threonine-protein kinase ULK3 (Homo sapiens) (UniProt Q6PHR2); conditions: Compound concentration 1000.0 nM
[43] = biological target: Serine/threonine-protein kinase 25 (Homo sapiens) (UniProt O00506); conditions: Compound concentration 1000.0 nM
[44] = biological target: Sodium-dependent serotonin transporter (Homo sapiens) (UniProt P31645); conditions: Compound concentration 10.0 uM
[45] = biological target: Kappa-type opioid receptor (Homo sapiens) (UniProt P41145); conditions: Compound concentration 10.0 uM

Ribosomal protein S6 kinase alpha-4 (Homo sapiens), sequence (O75676 whole entry, looked up): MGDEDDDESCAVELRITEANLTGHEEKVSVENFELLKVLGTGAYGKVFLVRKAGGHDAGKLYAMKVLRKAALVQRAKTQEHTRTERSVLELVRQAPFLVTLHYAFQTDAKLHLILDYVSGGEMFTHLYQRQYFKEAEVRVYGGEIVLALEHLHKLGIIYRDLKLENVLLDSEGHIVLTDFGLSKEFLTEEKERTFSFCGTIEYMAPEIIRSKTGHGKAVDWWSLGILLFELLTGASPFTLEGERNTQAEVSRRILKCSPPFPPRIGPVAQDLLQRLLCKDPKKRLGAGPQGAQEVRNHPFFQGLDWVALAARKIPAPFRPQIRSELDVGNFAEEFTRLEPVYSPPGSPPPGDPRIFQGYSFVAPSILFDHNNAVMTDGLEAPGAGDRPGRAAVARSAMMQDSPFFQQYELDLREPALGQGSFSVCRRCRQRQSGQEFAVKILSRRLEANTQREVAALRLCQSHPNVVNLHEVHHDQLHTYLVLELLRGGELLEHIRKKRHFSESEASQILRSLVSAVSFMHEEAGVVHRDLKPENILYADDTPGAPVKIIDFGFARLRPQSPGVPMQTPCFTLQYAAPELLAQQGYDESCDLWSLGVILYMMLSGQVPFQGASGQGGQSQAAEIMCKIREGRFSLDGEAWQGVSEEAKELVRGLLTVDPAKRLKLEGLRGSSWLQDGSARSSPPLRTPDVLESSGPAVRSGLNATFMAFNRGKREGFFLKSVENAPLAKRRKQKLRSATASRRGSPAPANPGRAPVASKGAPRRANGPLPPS
MAP/microtubule affinity-regulating kinase 4 (Homo sapiens), sequence (Q96L34 whole entry): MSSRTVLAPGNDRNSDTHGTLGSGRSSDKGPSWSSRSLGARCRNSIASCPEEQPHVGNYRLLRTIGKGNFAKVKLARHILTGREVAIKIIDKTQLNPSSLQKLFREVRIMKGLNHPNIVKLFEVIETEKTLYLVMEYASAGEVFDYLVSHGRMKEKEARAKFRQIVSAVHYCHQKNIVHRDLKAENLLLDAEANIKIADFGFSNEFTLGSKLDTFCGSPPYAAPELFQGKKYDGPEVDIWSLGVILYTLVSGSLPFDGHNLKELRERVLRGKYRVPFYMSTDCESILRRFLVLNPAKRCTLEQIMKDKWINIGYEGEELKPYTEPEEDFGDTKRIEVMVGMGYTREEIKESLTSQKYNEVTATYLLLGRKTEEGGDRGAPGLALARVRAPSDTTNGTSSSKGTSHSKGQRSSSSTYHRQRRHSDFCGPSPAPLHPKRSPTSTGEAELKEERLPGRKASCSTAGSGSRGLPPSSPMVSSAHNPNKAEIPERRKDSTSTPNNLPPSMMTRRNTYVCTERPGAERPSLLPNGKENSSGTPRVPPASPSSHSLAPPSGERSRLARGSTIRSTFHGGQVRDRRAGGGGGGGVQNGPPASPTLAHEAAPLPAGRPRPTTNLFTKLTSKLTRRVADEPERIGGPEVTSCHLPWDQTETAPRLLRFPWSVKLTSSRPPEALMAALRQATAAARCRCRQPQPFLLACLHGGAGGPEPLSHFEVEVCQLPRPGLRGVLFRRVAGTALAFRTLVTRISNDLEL
Phosphatidylinositol 4,5-bisphosphate 3-kinase catalytic subunit alpha isoform (Homo sapiens), P42336 [M1043I], sequence (P42336 whole entry M1043I, canonical isoform): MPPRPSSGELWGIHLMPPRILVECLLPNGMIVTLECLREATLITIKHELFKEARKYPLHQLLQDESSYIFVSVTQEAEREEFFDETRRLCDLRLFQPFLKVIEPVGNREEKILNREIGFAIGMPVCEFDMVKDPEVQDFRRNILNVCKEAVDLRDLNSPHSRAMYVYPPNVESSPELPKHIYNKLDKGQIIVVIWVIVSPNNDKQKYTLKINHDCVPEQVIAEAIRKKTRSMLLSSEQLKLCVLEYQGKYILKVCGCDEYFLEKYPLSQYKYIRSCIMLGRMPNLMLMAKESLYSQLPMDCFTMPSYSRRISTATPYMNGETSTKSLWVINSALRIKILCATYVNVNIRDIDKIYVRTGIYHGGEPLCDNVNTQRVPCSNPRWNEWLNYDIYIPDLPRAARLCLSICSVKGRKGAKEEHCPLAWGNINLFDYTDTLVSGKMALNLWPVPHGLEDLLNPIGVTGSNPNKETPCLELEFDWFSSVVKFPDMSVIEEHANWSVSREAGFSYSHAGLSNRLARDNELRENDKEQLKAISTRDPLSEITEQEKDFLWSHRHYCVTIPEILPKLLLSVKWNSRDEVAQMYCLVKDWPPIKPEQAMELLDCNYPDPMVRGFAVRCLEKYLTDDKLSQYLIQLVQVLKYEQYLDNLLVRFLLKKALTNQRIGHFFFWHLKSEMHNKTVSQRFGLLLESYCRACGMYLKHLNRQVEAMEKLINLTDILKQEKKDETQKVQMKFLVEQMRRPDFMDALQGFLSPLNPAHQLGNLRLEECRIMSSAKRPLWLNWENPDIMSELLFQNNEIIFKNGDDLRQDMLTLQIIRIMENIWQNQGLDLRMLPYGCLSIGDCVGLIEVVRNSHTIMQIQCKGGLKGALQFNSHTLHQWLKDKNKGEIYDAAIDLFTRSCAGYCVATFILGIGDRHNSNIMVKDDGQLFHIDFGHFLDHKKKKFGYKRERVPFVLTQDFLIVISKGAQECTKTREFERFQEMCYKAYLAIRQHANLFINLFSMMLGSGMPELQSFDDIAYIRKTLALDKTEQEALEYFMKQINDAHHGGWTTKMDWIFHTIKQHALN
LIM domain kinase 2 (Homo sapiens), sequence (P53671 whole entry, looked up, the tested form may be a part): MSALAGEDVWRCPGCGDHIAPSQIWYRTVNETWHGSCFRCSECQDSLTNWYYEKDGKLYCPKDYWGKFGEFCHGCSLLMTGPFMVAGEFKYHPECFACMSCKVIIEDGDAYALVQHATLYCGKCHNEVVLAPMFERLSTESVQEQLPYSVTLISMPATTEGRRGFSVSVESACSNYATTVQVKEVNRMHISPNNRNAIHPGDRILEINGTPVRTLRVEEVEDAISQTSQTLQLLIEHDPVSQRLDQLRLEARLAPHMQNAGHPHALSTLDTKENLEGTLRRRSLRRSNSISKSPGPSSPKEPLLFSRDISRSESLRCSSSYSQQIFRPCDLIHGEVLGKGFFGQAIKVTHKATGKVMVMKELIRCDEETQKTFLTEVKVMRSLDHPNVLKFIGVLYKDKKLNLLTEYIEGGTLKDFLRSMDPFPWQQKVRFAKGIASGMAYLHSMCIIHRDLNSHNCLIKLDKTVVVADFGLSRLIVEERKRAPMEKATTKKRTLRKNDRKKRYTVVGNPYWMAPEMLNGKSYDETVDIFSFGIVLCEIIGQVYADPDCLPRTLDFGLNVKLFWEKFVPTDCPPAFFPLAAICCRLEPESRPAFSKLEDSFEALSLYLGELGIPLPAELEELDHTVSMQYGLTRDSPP
Serine/threonine-protein kinase NLK (Homo sapiens), sequence (Q9UBE8 whole entry): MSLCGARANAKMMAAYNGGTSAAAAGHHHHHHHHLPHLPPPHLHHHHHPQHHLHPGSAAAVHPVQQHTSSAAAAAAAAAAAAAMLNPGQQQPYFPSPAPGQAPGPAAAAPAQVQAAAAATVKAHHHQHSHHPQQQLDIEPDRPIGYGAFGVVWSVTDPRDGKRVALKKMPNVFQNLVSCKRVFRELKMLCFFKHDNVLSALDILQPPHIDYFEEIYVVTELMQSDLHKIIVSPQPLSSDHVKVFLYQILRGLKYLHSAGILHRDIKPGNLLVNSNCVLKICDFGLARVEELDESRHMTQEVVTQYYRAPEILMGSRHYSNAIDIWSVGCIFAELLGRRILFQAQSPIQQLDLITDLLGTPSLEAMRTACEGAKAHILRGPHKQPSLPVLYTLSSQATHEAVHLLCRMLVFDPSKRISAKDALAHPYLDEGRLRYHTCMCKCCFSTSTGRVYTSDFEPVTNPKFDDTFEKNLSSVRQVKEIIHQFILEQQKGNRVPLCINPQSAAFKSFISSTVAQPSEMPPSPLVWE
Proto-oncogene tyrosine-protein kinase receptor Ret (Homo sapiens), P07949 [V804L], sequence (P07949 whole entry V804L): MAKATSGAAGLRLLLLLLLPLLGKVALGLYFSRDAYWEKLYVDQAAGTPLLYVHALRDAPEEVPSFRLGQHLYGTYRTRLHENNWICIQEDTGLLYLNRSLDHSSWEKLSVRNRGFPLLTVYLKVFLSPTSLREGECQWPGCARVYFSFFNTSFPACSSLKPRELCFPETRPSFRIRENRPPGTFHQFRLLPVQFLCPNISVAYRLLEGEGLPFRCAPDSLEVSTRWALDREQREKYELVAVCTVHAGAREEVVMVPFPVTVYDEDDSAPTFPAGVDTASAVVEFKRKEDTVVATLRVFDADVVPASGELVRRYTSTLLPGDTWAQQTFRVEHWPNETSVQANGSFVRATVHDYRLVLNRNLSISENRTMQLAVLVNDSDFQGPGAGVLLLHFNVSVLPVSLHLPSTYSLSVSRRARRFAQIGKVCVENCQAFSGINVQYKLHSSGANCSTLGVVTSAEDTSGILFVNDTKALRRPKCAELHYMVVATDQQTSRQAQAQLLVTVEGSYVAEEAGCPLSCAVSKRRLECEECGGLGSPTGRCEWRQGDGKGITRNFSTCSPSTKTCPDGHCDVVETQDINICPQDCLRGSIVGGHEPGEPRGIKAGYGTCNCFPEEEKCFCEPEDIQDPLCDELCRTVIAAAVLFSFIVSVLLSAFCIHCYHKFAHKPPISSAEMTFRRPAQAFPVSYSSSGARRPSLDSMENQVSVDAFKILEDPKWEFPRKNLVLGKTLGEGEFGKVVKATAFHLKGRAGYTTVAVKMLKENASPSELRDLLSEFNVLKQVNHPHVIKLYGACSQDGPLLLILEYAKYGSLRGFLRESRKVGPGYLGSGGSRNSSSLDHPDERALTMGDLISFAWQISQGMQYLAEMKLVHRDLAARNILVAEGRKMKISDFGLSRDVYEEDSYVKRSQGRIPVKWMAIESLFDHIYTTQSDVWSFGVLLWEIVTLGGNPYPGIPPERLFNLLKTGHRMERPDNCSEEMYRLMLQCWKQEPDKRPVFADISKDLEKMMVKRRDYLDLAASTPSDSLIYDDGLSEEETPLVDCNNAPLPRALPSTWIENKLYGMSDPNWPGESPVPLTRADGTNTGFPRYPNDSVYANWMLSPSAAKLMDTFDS

C[C@H](NC(=O)c1cnc2n1[C@](C)(Cc1ccc(C#N)cc1)C(=O)N2c1cc(Cl)c(F)c(Cl)c1)C(=O)NC1(c2ccccn2)CC1 [BI 1950]
inactive: residual activity [1] 78% | residual activity [2] 100% | residual activity [3] 100% | residual activity [4] 81% | residual activity [5] 100% | residual activity [6] 100% | residual activity [7] 96% | residual activity [8] 100% | residual activity [9] 100% | residual activity [10] 100% | residual activity [11] 100% | residual activity [12] 84% | residual activity [13] 100% | residual activity [14] 100% | residual activity [15] 100% | residual activity [16] 100% | residual activity [17] 100% | residual activity [18] 100% | residual activity [19] 100% | residual activity [20] 94% | residual activity [21] 96% | residual activity [22] 100% | residual activity [23] 100% | residual activity [24] 100% | residual activity [25] 80% | residual activity [26] 100% | residual activity [27] 59% | residual activity [28] 100% | residual activity [29] 100% | residual activity [30] 100% | residual activity [31] 100% | residual activity [32] 100% | residual activity [33] 100% | residual activity [34] 100% | residual activity [35] 100% | residual activity [36] 63% | residual activity [37] 92% | residual activity [38] 100% | residual activity [39] 100% | residual activity [41] 88% | residual activity [42] 100% | residual activity [43] 100% | inhibition [44] -4.33% | inhibition [45] 9.67%
active: residual activity [40] 24%

C[C@@]1(Cc2ccc(C#N)cc2)C(=O)N(c2cc(Cl)cc(Cl)c2)c2ncc(C(=O)NC3(c4nc(C5CCC5)no4)CC3)n21 [BI 9446]
inactive: residual activity [1] 96% | residual activity [2] 100% | residual activity [3] 100% | residual activity [4] 76% | residual activity [5] 100% | residual activity [6] 100% | residual activity [7] 100% | residual activity [8] 100% | residual activity [9] 100% | residual activity [10] 100% | residual activity [11] 88% | residual activity [12] 92% | residual activity [13] 100% | residual activity [14] 100% | residual activity [15] 100% | residual activity [16] 100% | residual activity [17] 100% | residual activity [18] 100% | residual activity [19] 100% | residual activity [20] 93% | residual activity [21] 100% | residual activity [22] 100% | residual activity [23] 100% | residual activity [24] 100% | residual activity [25] 80% | residual activity [26] 87% | residual activity [28] 100% | residual activity [29] 97% | residual activity [30] 100% | residual activity [31] 100% | residual activity [32] 100% | residual activity [33] 87% | residual activity [34] 100% | residual activity [35] 100% | residual activity [36] 95% | residual activity [37] 100% | residual activity [38] 100% | residual activity [39] 100% | residual activity [40] 91% | residual activity [41] 91% | residual activity [42] 100% | residual activity [43] 100% | inhibition [44] 5.35% | inhibition [45] 12.6%
active: residual activity [27] 48%
